Results published in patent US7465401B2, “Treatment of chloraminated water” (Water Corporation, priority 2003, dated 2008).

Experiments:
[1] = test system: ammonia oxidising bacteria, cultured from a chloraminated system; assay: Ammonia level over days in a dechlorinated chloraminated water sample dosed with ammonia and ammonia oxidising bacteria; format: cell-based
Protocol: After the elimination of chlorine, a chloraminated water bulk sample was dosed with excess ammonia to achieve 1.50 mg/L ammonia-N concentration. The bulk sample was dosed with ammonia oxidising bacteria, cultured from a chloraminated system.
The bulk sample was then subsampled into 9 separate portions. These portions were dosed as follows: • 1. no dosage • 2. 0.1 mg/L copper • 3. 0.2 mg/L copper • 4. 0.3 mg/L copper • 5. 0.2 mg/L zinc • 6. 0.4 mg/L zinc • 7. 0.2 mg/L copper, 0.1 mg/L zinc • 8. 0.1 mg/L copper, 0.2 mg/L zinc • 9. 0.2 mg/L copper, 0.4 mg/L zinc.
The samples were measured over subsequent days to determine the ammonia levels.

nitrification = assay: Field trial: covered reservoir dosed with copper sulphate; ammonia, nitrite and nitrate measured at inlet and outlet; details: copper about 0.25 mg/L for six weeks
Protocol: The levels of ammonia, nitrite and nitrate were measured both at reservoir inlet and outlet.

[2] = 0.1 mg/L copper, 1.50 mg/L ammonia-N at start
[3] = 0.2 mg/L copper, 1.50 mg/L ammonia-N at start
[4] = 0.3 mg/L copper, 1.50 mg/L ammonia-N at start

Structure (SMILES)	time after which the ammonia level begins to fall [1, 2]	time to fall to the base ammonia level of about 0.1 mg/L [1, 2] [days]	time the ammonia level was maintained [1, 3]	time to reach the base ammonia level [1, 3] [days]	time the ammonia level was maintained [1, 4] [days]	time to reach the base ammonia level [1, 4] [days]	microbiological activity following dosing (nitrification)	nitrate and nitrite levels at reservoir outlet (nitrification; detention period 3.5 days)	percentage of ammonia surviving from inlet to outlet (nitrification; detention period 3.5 days)	effect of zinc on the efficacy of the copper dose ([1]; zinc 0.1-0.4 mg/L in conjunction with copper 0.1-0.2 mg/L)
[Cu] [copper]	about seven	~12	about 15 days	19	34	40	significant reduction	substantial reduction	substantial increase	
[Zn] [zinc]										decrease the efficacy of the copper dose
